Reference: patent publication US6727205B2, “Plant growth regulators and methods for control and/or suppression of annual bluegrass” (BASF Aktiengesellschaft, priority 2001, dated 2004)

Tests used:
[1] = tested on: annual bluegrass (Poa Annua); assay: Percent control of annual bluegrass (browning, necrosis, melt-down, plant death); type: in vivo
Procedure: (§1) In this evaluation, annual bluegrass (Poa Annua) was grown, and the compounds were applied at various growth stages of the annual bluegrass as depicted in Table Ia using a randomized complete block design of four replications with ten treatments including one untreated control. The compounds were applied using water as the carrier. The results shown in Table Ib depict control of annual bluegrass, which includes browning, necrosis, melt-down and plant death. The results shown in Table Ic depict the amount of seeds on the plants and on the ground for the various treatments.

[2] = tested on: annual bluegrass (Poa Annua); assay: Seed/biomass effect on annual bluegrass at Day 212; type: in vivo; conditions: for Biomass Dry Weight: control (none) 251
Procedure: as §1

CP(=O)(O)CCC(N)C(=O)O (centres unmarked) [Glufosinate-Ammonium, 2-amino-4-(hydoxymethylphosphinyl)butanoic acid]
% Control at Days After First Treatment (DAT) ([1]; 17 DAT, application time A (seedling, day 1), rate 0.375 lb/A (420)): 80%
% Control at Days After First Treatment (DAT) ([1]; 43 DAT, application time A (seedling, day 1), rate 0.375 lb/A (420)): 80%
% Control at Days After First Treatment (DAT) ([1]; 43 DAT, application time C (tillering, day 35), rate 0.375 lb/A (420)): 10%
% Control at Days After First Treatment (DAT) ([1]; 77 DAT, application time A (seedling, day 1), rate 0.375 lb/A (420)): 74%
% Control at Days After First Treatment (DAT) ([1]; 77 DAT, application time C (tillering, day 35), rate 0.375 lb/A (420)): 96%
% Control at Days After First Treatment (DAT) ([1]; 151 DAT, application time A (seedling, day 1), rate 0.375 lb/A (420)): 33%
% Control at Days After First Treatment (DAT) ([1]; 151 DAT, application time C (tillering, day 35), rate 0.375 lb/A (420)): 74%
% Control at Days After First Treatment (DAT) ([1]; 151 DAT, application time E (flowering, day 136), rate 0.375 lb/A (420)): 93%
% Control at Days After First Treatment (DAT) ([1]; 172 DAT, application time A (seedling, day 1), rate 0.375 lb/A (420)): 3%
% Control at Days After First Treatment (DAT) ([1]; 172 DAT, application time C (tillering, day 35), rate 0.375 lb/A (420)): 45%
% Control at Days After First Treatment (DAT) ([1]; 172 DAT, application time E (flowering, day 136), rate 0.375 lb/A (420)): 65%
% Control at Days After First Treatment (DAT) ([1]; 204 DAT, application time A (seedling, day 1), rate 0.375 lb/A (420)): 0%
% Control at Days After First Treatment (DAT) ([1]; 204 DAT, application time C (tillering, day 35), rate 0.375 lb/A (420)): 18%
% Control at Days After First Treatment (DAT) ([1]; 204 DAT, application time E (flowering, day 136), rate 0.375 lb/A (420)): 8%
Seeds on Ground ([2]; application time E, control (none) 30): 34 g/5 sq ft
Seeds on Plant ([2]; application time E, control (none) 37): 32 g/5 sq ft
Biomass Dry Weight ([2]; application time E): 184 g/5 sq ft
Seeds on Ground ([2]; application time E, control (none) 669): 816 seeds/0.3 g
Seeds on Plant ([2]; application time E, control (none) 864): 1000 seeds/0.3 g

CCC(=O)C1=C([O-])CC(C(=O)[O-])CC1=O.[Ca+2] (centres unmarked) [Prohexadione-Calcium, calsium 3,5-dioxo-4-(1-oxopropyl)cyclohexanecarboxylate]
% Control at Days After First Treatment (DAT) ([1]; 17 DAT, application time A (seedling, day 1), rate 0.125 lb/A (140)): 0%
% Control at Days After First Treatment (DAT) ([1]; 17 DAT, application times A + B (seedling, days 1 and 15), rate A = 0.125 (140) + B = 0.125 (140) lb/A): 0%
% Control at Days After First Treatment (DAT) ([1]; 43 DAT, application time A (seedling, day 1), rate 0.125 lb/A (140)): 0%
% Control at Days After First Treatment (DAT) ([1]; 43 DAT, application time C (tillering, day 35), rate 0.125 lb/A (140)): 0%
% Control at Days After First Treatment (DAT) ([1]; 43 DAT, application times A + B (seedling, days 1 and 15), rate A = 0.125 (140) + B = 0.125 (140) lb/A): 0%
% Control at Days After First Treatment (DAT) ([1]; 77 DAT, application time A (seedling, day 1), rate 0.125 lb/A (140)): 0%
% Control at Days After First Treatment (DAT) ([1]; 77 DAT, application time C (tillering, day 35), rate 0.125 lb/A (140)): 0%
% Control at Days After First Treatment (DAT) ([1]; 77 DAT, application times A + B (seedling, days 1 and 15), rate A = 0.125 (140) + B = 0.125 (140) lb/A): 0%
% Control at Days After First Treatment (DAT) ([1]; 77 DAT, application times C + D (tillering, days 35 and 51), rate C = 0.125 (140) + D = 0.125 (140) lb/A): 0%
% Control at Days After First Treatment (DAT) ([1]; 151 DAT, application time A (seedling, day 1), rate 0.125 lb/A (140)): 0%
% Control at Days After First Treatment (DAT) ([1]; 151 DAT, application time C (tillering, day 35), rate 0.125 lb/A (140)): 0%
% Control at Days After First Treatment (DAT) ([1]; 151 DAT, application times A + B (seedling, days 1 and 15), rate A = 0.125 (140) + B = 0.125 (140) lb/A): 0%
% Control at Days After First Treatment (DAT) ([1]; 151 DAT, application times C + D (tillering, days 35 and 51), rate C = 0.125 (140) + D = 0.125 (140) lb/A): 0%
% Control at Days After First Treatment (DAT) ([1]; 172 DAT, application time A (seedling, day 1), rate 0.125 lb/A (140)): 0%
% Control at Days After First Treatment (DAT) ([1]; 172 DAT, application time C (tillering, day 35), rate 0.125 lb/A (140)): 0%
% Control at Days After First Treatment (DAT) ([1]; 172 DAT, application time F (flowering to soft dough, day 155), rate 0.250 lb/A (280)): 60%
% Control at Days After First Treatment (DAT) ([1]; 172 DAT, application times A + B (seedling, days 1 and 15), rate A = 0.125 (140) + B = 0.125 (140) lb/A): 0%
% Control at Days After First Treatment (DAT) ([1]; 172 DAT, application times C + D (tillering, days 35 and 51), rate C = 0.125 (140) + D = 0.125 (140) lb/A): 0%
% Control at Days After First Treatment (DAT) ([1]; 204 DAT, application time A (seedling, day 1), rate 0.125 lb/A (140)): 0%
% Control at Days After First Treatment (DAT) ([1]; 204 DAT, application time C (tillering, day 35), rate 0.125 lb/A (140)): 0%
% Control at Days After First Treatment (DAT) ([1]; 204 DAT, application time F (flowering to soft dough, day 155), rate 0.250 lb/A (280)): 95%
% Control at Days After First Treatment (DAT) ([1]; 204 DAT, application times A + B (seedling, days 1 and 15), rate A = 0.125 (140) + B = 0.125 (140) lb/A): 0%
% Control at Days After First Treatment (DAT) ([1]; 204 DAT, application times C + D (tillering, days 35 and 51), rate C = 0.125 (140) + D = 0.125 (140) lb/A): 0%
Seeds on Ground ([2]; application time F, prohexadione-calcium treatment, control (none) 30): 50 g/5 sq ft
Seeds on Plant ([2]; application time F, prohexadione-calcium treatment, control (none) 37): 34 g/5 sq ft
Biomass Dry Weight ([2]; application time F, prohexadione-calcium treatment): 188 g/5 sq ft
Seeds on Ground ([2]; application time F, prohexadione-calcium treatment, control (none) 669): 583 seeds/0.3 g
Seeds on Plant ([2]; application time F, prohexadione-calcium treatment, control (none) 864): 822 seeds/0.3 g
